Data from the supplement of paper PMC10307832.

Assays:
Assay in all cases: relative viability (nuclei count vs DMSO), 5 days (fraction); higher = more cells survive
Vemurafenib + Luminespib = compound: CCCS(=O)(=O)Nc1ccc(F)c(C(=O)c2c[nH]c3ncc(-c4ccc(Cl)cc4)cc23)c1F [Vemurafenib] + CCNC(=O)c1noc(-c2cc(C(C)C)c(O)cc2O)c1-c1ccc(CN2CCOCC2)cc1 [Luminespib] (partner 0.01 µM)
In short: (§1)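 Dosing by pin tool came one day after lung cancer cell lines were seeded in 1536-well plates, using either one drug or a fixed anchor-drug dose plus five library-drug doses (not always all listed) in √10 steps. After 5 days, nuclei were counted on 4× images. Relative viability is treated-well nuclei count divided by vehicle-well nuclei count, and values are medians of duplicate plates.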

Vemurafenib + Alpelisib = compound: CCCS(=O)(=O)Nc1ccc(F)c(C(=O)c2c[nH]c3ncc(-c4ccc(Cl)cc4)cc23)c1F [Vemurafenib] + Cc1nc(NC(=O)N2CCC[C@H]2C(N)=O)sc1-c1ccnc(C(C)(C)C(F)(F)F)c1 [Alpelisib] (partner 2 µM)
In short: as §1

Vemurafenib + Pemetrexed = compound: CCCS(=O)(=O)Nc1ccc(F)c(C(=O)c2c[nH]c3ncc(-c4ccc(Cl)cc4)cc23)c1F [Vemurafenib] + Nc1nc2[nH]cc(CCc3ccc(C(=O)N[C@@H](CCC(=O)O)C(=O)O)cc3)c2c(=O)[nH]1 [Pemetrexed] (partner 0.2 µM)
In short: as §1

Alpelisib + Decitabine = compound: Cc1nc(NC(=O)N2CCC[C@H]2C(N)=O)sc1-c1ccnc(C(C)(C)C(F)(F)F)c1 [Alpelisib] + Nc1ncn([C@H]2C[C@H](O)[C@@H](CO)O2)c(=O)n1 [Decitabine] (partner 2 µM)
In short: as §1

Cell Line	relative viability (Vemurafenib + Luminespib; first compound 0.03162 µM)	relative viability (Vemurafenib + Luminespib; first compound 0.1 µM)	relative viability (Vemurafenib + Luminespib; first compound 0.3162 µM)	relative viability (Vemurafenib + Luminespib; first compound 1 µM)	relative viability (Vemurafenib + Alpelisib; first compound 0.03162 µM)	relative viability (Vemurafenib + Alpelisib; first compound 0.1 µM)	relative viability (Vemurafenib + Alpelisib; first compound 0.3162 µM)	relative viability (Vemurafenib + Alpelisib; first compound 1 µM)	relative viability (Vemurafenib + Pemetrexed; first compound 0.1 µM)	relative viability (Vemurafenib + Pemetrexed; first compound 0.3162 µM)	relative viability (Vemurafenib + Pemetrexed; first compound 1 µM)	relative viability (Alpelisib + Decitabine; first compound 0.04 µM)	relative viability (Alpelisib + Decitabine; first compound 0.1265 µM)	relative viability (Alpelisib + Decitabine; first compound 0.4 µM)	relative viability (Alpelisib + Decitabine; first compound 1.265 µM)	relative viability (Alpelisib + Decitabine; first compound 4 µM)	relative viability (Vemurafenib + Pemetrexed; first compound 0.03162 µM)
LCLC-97TM1	0.811	0.768	0.807	0.817	0.26	0.233	0.275	0.262	0.163	0.185	0.149	0.232	0.222	0.213	0.191	0.177	–
LCLC-103H	0.914	0.805	0.899	0.967	0.901	0.883	1.02	1.04	0.515	0.377	0.456	0.688	0.717	0.775	0.571	0.465	0.495
LK-2	0.19	0.188	0.131	0.181	1.07	1.07	1.22	0.706	0.274	0.26	0.304	0.289	0.256	0.254	0.198	0.185	0.247
LOU-NH91	0.301	–	–	0.412	0.713	0.487	–	0.734	0.464	0.337	0.382	0.823	0.781	0.79	0.679	0.648	0.372
LU99A	0.224	0.282	0.259	0.288	0.518	0.486	0.52	0.423	0.196	–	0.199	0.822	0.838	0.899	0.666	0.579	0.229
LXF-289	0.647	0.584	0.661	0.689	1.02	1.02	1.05	1.03	0.868	0.903	0.635	0.373	0.352	0.336	0.377	0.277	0.871
NCI-H23	0.194	0.211	0.166	0.228	0.626	0.642	0.912	0.664	0.772	0.622	0.727	0.322	0.276	0.327	0.28	0.198	0.564
NCI-H322M	0.861	–	–	0.825	0.845	–	0.872	0.707	–	0.597	0.537	0.722	0.707	0.721	0.627	0.529	0.587
NCI-H358	0.27	–	0.504	0.267	0.872	–	1.16	0.809	0.179	0.189	0.193	0.194	0.195	0.205	0.178	0.169	0.208
NCI-H441	0.373	0.245	0.392	0.316	0.791	0.741	–	0.534	0.295	0.249	0.27	0.244	0.215	0.271	0.22	0.224	0.23
NCI-H460	0.0379	0.0333	0.0345	0.0293	0.349	0.357	0.631	0.593	0.058	0.065	0.0749	0.496	0.571	0.436	0.442	0.291	0.0604
NCI-H520	0.187	0.231	0.221	0.233	0.979	1.05	0.94	0.793	0.643	0.532	0.608	0.422	0.531	0.481	0.442	0.412	0.689
NCI-H522	0.96	1.14	–	1.13	–	–	–	–	0.98	0.867	1.2	0.707	0.741	0.681	0.591	0.61	0.855
NCI-H596	0.984	1.1	1.01	0.958	0.526	0.48	0.475	0.42	0.494	0.405	0.583	1	0.954	1.01	0.699	0.61	0.501
NCI-H727	0.309	–	0.313	0.353	0.519	0.49	0.849	0.574	–	–	–	0.973	0.859	0.881	0.854	0.828	–
NCI-H1299	–	–	–	–	1.05	1.05	0.928	0.985	–	–	–	–	–	–	–	–	–
NCI-H1563	0.505	0.475	0.563	0.59	0.874	0.935	0.904	0.949	0.627	0.681	0.65	–	–	–	–	–	0.708
NCI-H1623	0.631	–	0.679	0.414	–	–	–	–	–	–	–	–	–	–	–	–	–
NCI-H1648	–	–	–	–	–	–	–	–	0.671	1.01	0.748	0.477	0.508	0.353	0.372	0.253	–
NCI-H1650	–	0.205	–	0.215	–	–	–	–	0.316	0.343	0.351	0.346	0.365	0.389	0.345	0.362	0.343
NCI-H1703	–	–	–	–	0.353	0.318	0.292	0.301	–	–	–	–	–	–	–	–	–
NCI-H2228	0.148	0.161	0.19	0.172	0.964	0.752	0.905	0.627	0.321	0.391	0.323	–	–	–	–	–	0.315
NCI-H2342	0.609	0.622	0.792	0.701	–	–	–	–	0.834	0.684	0.784	0.697	0.666	0.701	0.711	0.503	0.75
SW 900	0.168	0.174	0.207	0.208	–	–	–	–	0.466	0.457	0.478	0.425	–	0.411	0.505	0.379	0.494
